Assay results taken from the supplement of paper PMC10307832.

Key:
Assay in all cases: relative viability (nuclei count vs DMSO), 5 days (fraction); higher = more cells survive
[1] = system: NCI-H2347
Method in brief: (§1)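 Lung cancer cell lines were seeded in 1536-well plates and dosed by pin tool the next day, with either a single drug or a fixed anchor-drug dose combined with five library-drug doses (not always all listed) spaced in √10 steps. Five days later, one step fixed the cells and stained their nuclei (final 0.05% Triton X-100, 1% formaldehyde, 1 ug/ml Hoechst), and nuclei were counted on 4× images. Relative viability is the nuclei count in treated wells divided by the count in vehicle wells, and each value is the median of duplicate plates.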

[2] = system: NCI-H2009
Method in brief: as §1

[3] = system: NCI-H661
Method in brief: as §1

[4] = system: EMC-BAC-2
Method in brief: as §1

[5] = system: NCI-H1734
Method in brief: as §1

[6] = system: HOP-62
Method in brief: as §1

[7] = system: NCI-H727
Method in brief: as §1

[8] = system: NCI-H2085
Method in brief: as §1

[9] = system: NCI-H647
Method in brief: as §1

[10] = system: LCLC-97TM1
Method in brief: as §1

[11] = system: H3255
Method in brief: as §1

[12] = system: NCI-H1993
Method in brief: as §1

[13] = system: SK-LU-1
Method in brief: as §1

[14] = system: EPLC-272H
Method in brief: as §1

[15] = system: NCI-H1563
Method in brief: as §1

[16] = system: LXF-289
Method in brief: as §1

[17] = system: NCI-H2126
Method in brief: as §1

[18] = system: NCI-H2023
Method in brief: as §1

[19] = system: NCI-H1915
Method in brief: as §1

[20] = system: SW 1573
Method in brief: as §1

[21] = system: PC-14
Method in brief: as §1

[22] = system: NCI-H322M
Method in brief: as §1

`COc1cc2nccc(Oc3ccc(NC(=O)Nc4cc(C)on4)c(Cl)c3)c2cc1OC` [Tivozanib] + Cc1nc(NC(=O)N2CCC[C@H]2C(N)=O)sc1-c1ccnc(C(C)(C)C(F)(F)F)c1 [Alpelisib] (partner 2 µM) was tested, and the relative viability ([1]; first compound 0.005 µM) was 1.01, the relative viability ([1]; first compound 0.01581 µM) was 1.03 and the relative viability ([1]; first compound 0.05 µM) was 1.03. It also gave a relative viability ([1]; first compound 0.1581 µM) of 1.1, a relative viability ([1]; first compound 0.5 µM) of 0.987 and a relative viability ([2]; first compound 0.005 µM) of 1.16. The relative viability ([2]; first compound 0.01581 µM) was 1.08, the relative viability ([2]; first compound 0.05 µM) was 1.29 and the relative viability ([2]; first compound 0.1581 µM) was 1.22. The relative viability ([2]; first compound 0.5 µM) was 1.19, the relative viability ([3]; first compound 0.005 µM) was 0.52 and the relative viability ([3]; first compound 0.01581 µM) was 0.713. It also gave a relative viability ([3]; first compound 0.05 µM) of 0.609, a relative viability ([3]; first compound 0.1581 µM) of 0.302 and a relative viability ([3]; first compound 0.5 µM) of 0.525. It also gave a relative viability ([4]; first compound 0.005 µM) of 0.722, a relative viability ([4]; first compound 0.01581 µM) of 0.736 and a relative viability ([4]; first compound 0.05 µM) of 0.753. It also gave a relative viability ([4]; first compound 0.1581 µM) of 0.696, a relative viability ([4]; first compound 0.5 µM) of 0.774 and a relative viability ([5]; first compound 0.005 µM) of 0.656. The relative viability ([5]; first compound 0.01581 µM) was 0.66, the relative viability ([5]; first compound 0.05 µM) was 0.702 and the relative viability ([5]; first compound 0.1581 µM) was 0.536. For the same molecule, the relative viability ([5]; first compound 0.5 µM) was 0.727, the relative viability ([6]; first compound 0.005 µM) was 0.72 and the relative viability ([6]; first compound 0.01581 µM) was 0.729. For the same molecule, the relative viability ([6]; first compound 0.05 µM) was 1.06, the relative viability ([6]; first compound 0.1581 µM) was 0.483 and the relative viability ([6]; first compound 0.5 µM) was 0.901. For the same molecule, the relative viability ([7]; first compound 0.005 µM) was 0.505, the relative viability ([7]; first compound 0.01581 µM) was 0.501 and the relative viability ([7]; first compound 0.05 µM) was 0.675. The relative viability ([7]; first compound 0.5 µM) was 0.615, the relative viability ([8]; first compound 0.005 µM) was 1.02 and the relative viability ([8]; first compound 0.01581 µM) was 0.978. It also gave a relative viability ([8]; first compound 0.05 µM) of 0.905, a relative viability ([8]; first compound 0.1581 µM) of 0.963 and a relative viability ([8]; first compound 0.5 µM) of 0.642. For the same molecule, the relative viability ([9]; first compound 0.005 µM) was 1.22, the relative viability ([9]; first compound 0.01581 µM) was 1.17 and the relative viability ([9]; first compound 0.05 µM) was 1.1. It also gave a relative viability ([9]; first compound 0.1581 µM) of 0.803, a relative viability ([9]; first compound 0.5 µM) of 0.958 and a relative viability ([10]; first compound 0.005 µM) of 0.191. The relative viability ([10]; first compound 0.01581 µM) was 0.206, the relative viability ([10]; first compound 0.1581 µM) was 0.237 and the relative viability ([10]; first compound 0.5 µM) was 0.247. For the same molecule, the relative viability ([11]; first compound 0.005 µM) was 0.727, the relative viability ([11]; first compound 0.01581 µM) was 0.716 and the relative viability ([11]; first compound 0.05 µM) was 0.684. The relative viability ([11]; first compound 0.1581 µM) was 0.689, the relative viability ([11]; first compound 0.5 µM) was 0.615 and the relative viability ([12]; first compound 0.005 µM) was 0.657. For the same molecule, the relative viability ([12]; first compound 0.01581 µM) was 0.741, the relative viability ([12]; first compound 0.05 µM) was 0.688 and the relative viability ([12]; first compound 0.1581 µM) was 0.688. It also gave a relative viability ([12]; first compound 0.5 µM) of 0.695, a relative viability ([13]; first compound 0.005 µM) of 1.01 and a relative viability ([13]; first compound 0.01581 µM) of 1.01. It also gave a relative viability ([13]; first compound 0.05 µM) of 1.12, a relative viability ([13]; first compound 0.1581 µM) of 0.645 and a relative viability ([13]; first compound 0.5 µM) of 0.907. It also gave a relative viability ([14]; first compound 0.005 µM) of 0.964, a relative viability ([14]; first compound 0.01581 µM) of 0.918 and a relative viability ([14]; first compound 0.05 µM) of 1.05. For the same molecule, the relative viability ([14]; first compound 0.1581 µM) was 0.723, the relative viability ([14]; first compound 0.5 µM) was 0.862 and the relative viability ([15]; first compound 0.005 µM) was 0.926. It also gave a relative viability ([15]; first compound 0.01581 µM) of 0.976, a relative viability ([15]; first compound 0.05 µM) of 0.972 and a relative viability ([15]; first compound 0.1581 µM) of 0.843. For the same molecule, the relative viability ([15]; first compound 0.5 µM) was 0.835, the relative viability ([16]; first compound 0.005 µM) was 1.02 and the relative viability ([16]; first compound 0.01581 µM) was 0.966. It also gave a relative viability ([16]; first compound 0.05 µM) of 1.06, a relative viability ([16]; first compound 0.1581 µM) of 1.09 and a relative viability ([16]; first compound 0.5 µM) of 1.02. It also gave a relative viability ([17]; first compound 0.005 µM) of 0.708, a relative viability ([17]; first compound 0.01581 µM) of 0.757 and a relative viability ([17]; first compound 0.05 µM) of 0.763. For the same molecule, the relative viability ([17]; first compound 0.1581 µM) was 0.53, the relative viability ([17]; first compound 0.5 µM) was 0.734 and the relative viability ([18]; first compound 0.005 µM) was 0.553. The relative viability ([18]; first compound 0.01581 µM) was 0.578, the relative viability ([18]; first compound 0.05 µM) was 0.634 and the relative viability ([18]; first compound 0.1581 µM) was 0.589. For the same molecule, the relative viability ([18]; first compound 0.5 µM) was 0.61, the relative viability ([19]; first compound 0.005 µM) was 1.08 and the relative viability ([19]; first compound 0.01581 µM) was 1.04. The relative viability ([19]; first compound 0.05 µM) was 1.11, the relative viability ([19]; first compound 0.1581 µM) was 0.99 and the relative viability ([19]; first compound 0.5 µM) was 0.961. For the same molecule, the relative viability ([20]; first compound 0.005 µM) was 0.796, the relative viability ([20]; first compound 0.01581 µM) was 0.825 and the relative viability ([20]; first compound 0.05 µM) was 0.784. It also gave a relative viability ([20]; first compound 0.1581 µM) of 0.639, a relative viability ([20]; first compound 0.5 µM) of 0.776 and a relative viability ([21]; first compound 0.005 µM) of 0.89. For the same molecule, the relative viability ([21]; first compound 0.01581 µM) was 0.993, the relative viability ([21]; first compound 0.05 µM) was 1.07 and the relative viability ([21]; first compound 0.1581 µM) was 0.911. It also gave a relative viability ([21]; first compound 0.5 µM) of 0.873, a relative viability ([22]; first compound 0.005 µM) of 0.743 and a relative viability ([22]; first compound 0.01581 µM) of 0.764. It also gave a relative viability ([22]; first compound 0.05 µM) of 0.767, a relative viability ([22]; first compound 0.1581 µM) of 0.756 and a relative viability ([22]; first compound 0.5 µM) of 0.84.
